Assay results taken from patent US20030138470A1, “Fragrant composition having mosquito-repelling effect” (TAKASAGO INTERNATIONAL CORPORATION, priority 2001, published 2003).

Test system: adults of Culex pipiens pallen
Assay: Blood-sucking repelling test on forearms
Type: in vivo
Settings: 1% test sample solution on forearms, 15 minutes exposure, 30° C., humidity 70%
Procedure: […] of 1% test sample solutions were prepared by dissolving 1 g of each of the fragrant compositions of Examples 1, 2 and 3, Comparative Example 3 (Pelargonium citrosum extract), and Comparative Example 4 (DEET) into 90 g of ethanol and adding 9 g of water.
On the sample solutions of Examples 1, 2 and 3 and Comparative Examples 3 and 4, a blood-sucking repelling test toward adults of Culex pipiens pallen was carried out, whereby strength of mosquito-repellency and persistency were compared.
The test was carried out in a constant-temperature room kept at a temperature of 30° C. and a humidity of 70%.
After 10 ml of each test sample solution was applied onto right and left forearms, each arm was entered for 15 minutes into a bag-shape wire netting having a size of 20 cm×15 cm in which 50 each of male and female mosquitoes which were 5 to 7 days after emergence were placed, whereby the mosquitoes were allowed to suck blood. This operation was repeatedly carried out 1 hour, 2 hours, 3 hours, 4 hours, and 6 hours after the sample application, the number of sucked places within the sucking time was counted, and repellency was calculated according to the following equation.
Repellency=[(X−Y)/X]×100(%)
X: the number of sucked places in the case that no test sample solution was applied.
Y: the number of sucked places in the case that a test sample solution was applied.

CCN(CC)C(=O)c1cccc(C)c1 [Comparative Example 4, N,N-Diethyl-m-toluamide]
100%: Repellency After 1 hour (1 hour after application) | Repellency After 2 hours (2 hours after application) | Repellency After 3 hours (3 hours after application) | Repellency After 4 hours (4 hours after application) | Repellency After 6 hours (6 hours after application)
